# From US20100173935A1, “Muscarinic Receptor Agonists that are Effective in the Treatment of Pain, Alzheimer's Disease and Schizophrenia” (AstraZeneca AB, priority 2006, published 2010)
# Where two headings read alike, the source gives them in different places.
# How the values were obtained:
# human M2 receptor = target: T1, human M2 receptor (Homo sapiens, UniProt P08172); assay: hM2 receptor GTPγS binding; type: biochemical
# T1 construct: purchased Perkin-Elmer RBHM2M; host or cells: CHO cell membranes
# T1 sequence (P08172 1-466): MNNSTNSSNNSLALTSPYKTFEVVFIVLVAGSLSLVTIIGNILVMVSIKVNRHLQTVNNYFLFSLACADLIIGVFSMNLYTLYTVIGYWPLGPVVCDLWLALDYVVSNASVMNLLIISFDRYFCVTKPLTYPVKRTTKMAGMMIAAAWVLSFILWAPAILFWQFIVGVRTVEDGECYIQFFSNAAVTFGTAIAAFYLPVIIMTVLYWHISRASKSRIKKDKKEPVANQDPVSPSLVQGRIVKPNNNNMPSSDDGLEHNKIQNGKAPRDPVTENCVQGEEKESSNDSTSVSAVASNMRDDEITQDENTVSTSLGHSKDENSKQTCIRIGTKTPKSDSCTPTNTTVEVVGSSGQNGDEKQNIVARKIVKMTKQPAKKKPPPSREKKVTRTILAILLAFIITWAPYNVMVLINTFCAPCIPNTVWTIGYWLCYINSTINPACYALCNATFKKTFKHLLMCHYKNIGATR
# Procedure: Membranes produced from Chinese hamster ovary cells (CHO) expressing the cloned human M2 receptor (human Muscarinic receptor subtype 2, gene bank access NM_000739), were obtained from Perkin-Elmer (RBHM2M). The membranes were thawed at 37° C., passed 3 times through a 23-gauge blunt-end needle, diluted in the GTPγS binding buffer (50 mM Hepes, 20 mM NaOH, 100 mM NaCl, 1 mM EDTA, 5 mM MgCl2, pH 7.4, […] DTT). The EC50, IC50 and Emax of the compounds of the invention were evaluated from 10-point dose-response curves (three fold concentration range) done in 60 μl in 384-well non-specific binding surface plate (Corning). Ten microliters from the dose-response curves plate (5× concentration) were transferred to another 384 well plate containing the following: 10 μg of hM2 membranes, 500 μg of Flashblue beads (Perkin-Elmer) and GDP in a 25 μl volume. An additional 15 μl containing 3.3× (55000 dpm) of GTRγ35S (0.4 nM final) were added to the wells resulting in a total well volume of 50 μl. Basal and maximal stimulated [^35S]GTPγS binding were determined in absence and presence of 30 μM of acetylcholine agonist. The membranes/beads mix were pre-incubated for 15 minutes at room temperature with 25 μM GDP prior to distribution in plates (12.5 μM final). The reversal of acetylcholine-induced stimulation (2 μM final) of [^35S]GTPγS binding was used to assay the antagonist properties (IC50) of the compounds. The plates were incubated for 60 minutes at room temperature with shaking, then centrifuged at 2000 rpm for 5 minutes. The radioactivity (cpm) were counted in a Trilux (Perkin-Elmer).
# Values of EC50, IC50 and Emax were obtained using sigmoidal fits of a non-linear curve-fitting program (XLfit version 5.0.6 from ID Business Solutions Limited, Guildford, UK) of percent stimulated [^35S]GTPγS binding vs. log(molar ligand).
# All EC50 and IC50 values are reported as arithmetic means t standard error of mean of ‘n’ independent experiments. […] The IC50 was the concentration of the compound of the invention at which 50% inhibition of acetylcholine [^35S]GTPγS binding stimulation has been observed.
# human M4 receptor = target: T2, human M4 receptor (Homo sapiens, UniProt P08173); assay: hM4 receptor GTPγS binding; type: biochemical
# T2 construct: purchased Perkin-Elmer RBHM4M; host or cells: CHO cell membranes
# T2 sequence (P08173 1-479): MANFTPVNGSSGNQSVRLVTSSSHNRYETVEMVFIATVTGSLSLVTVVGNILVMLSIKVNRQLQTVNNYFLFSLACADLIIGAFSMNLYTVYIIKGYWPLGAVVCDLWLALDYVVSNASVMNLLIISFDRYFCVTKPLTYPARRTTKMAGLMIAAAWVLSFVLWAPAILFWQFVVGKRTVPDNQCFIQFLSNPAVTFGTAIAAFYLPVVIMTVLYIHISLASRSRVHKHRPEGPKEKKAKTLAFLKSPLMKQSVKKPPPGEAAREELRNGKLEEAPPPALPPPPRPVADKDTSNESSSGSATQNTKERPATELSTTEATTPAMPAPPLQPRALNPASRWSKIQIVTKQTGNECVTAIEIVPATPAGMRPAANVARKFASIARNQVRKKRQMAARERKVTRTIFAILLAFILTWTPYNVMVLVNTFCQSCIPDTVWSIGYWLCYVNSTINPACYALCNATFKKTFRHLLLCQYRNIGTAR
# Procedure: Membranes produced from Chinese hamster ovary cells (CHO) expressing the cloned human M4 receptor (human Muscarinic receptor subtype 4, gene bank access NM_000741), were obtained from Perkin-Elmer (RBHM4M). The membranes were thawed at 37° C., passed 3 times through a 23-gauge blunt-end needle, diluted in the GTPγS binding buffer (50 mM Hepes, 20 mM NaOH, 100 mM NaCl, 1 mM EDTA, 5 mM MgCl2, pH 7.4, 100 μM DTT). The EC50, IC50 and Emax of the compounds of the invention were evaluated from 10-point dose-response curves (three fold concentration range) done in 60 μl in 384-well non-specific binding surface plate (Corning). Ten microliters from the dose-response curves plate (5× concentration) were transferred to another 384 well plate containing the following: 10 μg of hM4 membranes, 500 μg of Flashblue beads (Perkin-Elmer) and GDP in a 25 μl volume. An additional 15 μl containing 3.3× (55000 dpm) of GTPγS (0.4 nM final) were added to the wells resulting in a total well volume of […]. Basal and maximal stimulated [^35S]GTPγS binding were determined in absence and presence of 30 μM of acetylcholine agonist. The membranes/beads mix were pre-incubated for 15 minutes at room temperature with 40 μM GDP prior to distribution In plates (20 μM final). The reversal of acetylcholine-induced stimulation (10 μM final) of [^35S]GTPγS binding was used to assay the antagonist properties (IC50) of the compounds. The plates were incubated for 60 minutes at room temperature with shaking, then centrifuged at 2000 rpm for 5 minutes. The radioactivity (cpm) were counted in a Trilux (Perkin-Elmer).
# Values of EC50, IC50 and Emax were obtained using sigmoidal fits of a non-linear curve-fitting program (XLfit version 5.0.6 from ID Business Solutions Limited, Guildford, UK) of percent stimulated [^35S]GTRγS binding vs. log(molar ligand).
# All EC50 and IC50 values are reported as arithmetic means±standard error of mean of ‘n’ independent experiments. […] The IC50 was the concentration of the compound of the invention at which 50% inhibition of acetylcholine [^35S]GTRγS binding stimulation has been observed.
# [1] = CHO membranes expressing cloned human M2, [35S]GTPγS binding, read-out: hM2 EC50
# [2] = CHO membranes expressing cloned human M4, [35S]GTPγS binding, read-out: hM4 EC50
Compound,EC50 (human M2 receptor),EC50 (human M4 receptor),EC50 (human M2 receptor; [1]),EC50 (human M4 receptor; [2])
"CCOC(=O)N1CC[C@H](N2CCC(n3c(=O)[nH]c4ccc(F)cc43)CC2)C1 (single isomer, unassigned) [Example 35]",> 30 µM,> 30 µM,–,–
"CCOC(=O)N1CC[C@@H](N2CCC(n3c(=O)[nH]c4ccc(F)cc43)CC2)C1 (single isomer, unassigned) [Example 36]",4.65 µM,> 30 µM,–,–
"CCOC(=O)N1CCC(N2CCC(C3C(=O)Nc4ccccc43)CC2)C1 (stereo not shown) [Example 13, Ethyl 3-[4-(2-oxo-2,3-dihydro-1H-indol-3-yl)piperidin-1-yl]pyrrolidine-1-carboxylate]",–,–,3.54 µM,> 30 µM
"CCOC(=O)N1CC[C@@H](N2CCC(n3c(=O)[nH]c4ccccc43)CC2)C1 [Example 16, Ethyl (3R)-3-[4-(2-oxo-2,3-dihydro-1H-benzimidazol-1-yl)piperidin-1-yl]pyrrolidine-1-carboxylate]",–,–,3.29 µM,> 30 µM
"O=C(C1CCCC1)N1CC[C@H](N2CCC(n3c(=O)[nH]c4ccccc43)CC2)C1 [Example 19, 1-{1-[(3S)-1-(cyclopentylcarbonyl)pyrrolidin-3-yl]piperidin-4-yl}-1,3-dihydro-2H-benzimidazol-2-one]",0.245 µM,0.577 µM,–,–
"O=C1CCCN1CCCC(=O)N1CC[C@H](N2CCC(n3c(=O)[nH]c4ccccc43)CC2)C1 [Example 22, 1-(1-{(3S)-1-[4-(2-oxopyrrolidin-1-yl)butanoyl]pyrrolidin-3-yl}piperidin-4-yl)-1,3-dihydro-2H-benzimidazol-2-one]",> 30 µM,> 30 µM,–,–
"Cn1c(=O)n(C2CCN([C@H]3CCN(C(=O)CCN4CCCC4=O)C3)CC2)c2ccccc21 [Example 24, 1-methyl-3-(1-{(3S)-1-[3-(2-oxopyrrolidin-1-yl)propanoyl]pyrrolidin-3-yl}piperidin-4-yl)-1,3-dihydro-2H-benzimidazol-2-one]",–,–,> 30 µM,> 30 µM
"CCOC(=O)N1CC[C@H](N2CCC(N3C(=O)Cc4ccccc43)CC2)C1 [Example 26, Ethyl (3S)-3-[4-(2-oxo-2,3-dihydro-1H-indol-1-yl)piperidin-1-yl]pyrrolidine-1-carboxylate]",7.45 µM,> 30 µM,–,–
"O=C1CCCN1CCC(=O)N1CC[C@H](N2CCC(N3C(=O)Cc4ccccc43)CC2)C1 [Example 29, 1-(1-{(3S)-1-[3-(2-oxopyrrolidin-1-yl)propanoyl]pyrrolidin-3-yl}piperidin-4-yl)-1,3-dihydro-2H-indol-2-one]",1.75 µM,> 30 µM,–,–
"CCOC(=O)N1CC[C@H](N2CCC(n3c(=O)[nH]c4ccc(C#N)cc43)CC2)C1 [Example 41, Ethyl (3S)-3-[4-(6-cyano-2-oxo-2,3-dihydro-1H-benzimidazol-1-yl)piperidin-1-yl]pyrrolidine-1-carboxylate]",> 3.33 µM,> 30 µM,–,–
"CCOC(=O)N1CC[C@H](N2CCC(n3c(=O)[nH]c4ccc(Cl)cc43)CC2)C1 [Example 42, Ethyl (3S)-3-[4-(6-chloro-2-oxo-2,3-dihydro-1H-benzimidazol-1-yl)piperidin-1-yl]pyrrolidine-1-carboxylate]",1.2 µM,≥ 10 µM,–,–
